Here are results for 22 compounds from patent US20100216827A1 (Metabolex, Inc., priority 2008, published 2010).

Read-outs that look alike come from different tables or passages of the source. Where only a bound is given, the exact number is not on record here.

The target in the assay is T1, human GPR120 (Homo sapiens, UniProt Q5NUL3).
T1 construct: host or cells: HEK293 cells coexpressing Gqi5
T1 sequence (Q5NUL3 1-361): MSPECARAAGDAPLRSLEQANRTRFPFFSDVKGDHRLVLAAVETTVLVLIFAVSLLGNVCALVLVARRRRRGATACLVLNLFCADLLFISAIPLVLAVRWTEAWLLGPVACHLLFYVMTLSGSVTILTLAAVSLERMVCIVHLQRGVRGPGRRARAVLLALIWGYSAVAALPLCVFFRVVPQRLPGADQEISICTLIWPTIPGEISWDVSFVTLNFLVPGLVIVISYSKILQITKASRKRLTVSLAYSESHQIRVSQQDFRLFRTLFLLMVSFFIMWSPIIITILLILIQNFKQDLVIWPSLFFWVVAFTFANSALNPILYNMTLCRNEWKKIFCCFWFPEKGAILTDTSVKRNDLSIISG
Briefly: Intracellular Ca2+ (FLIPR Calcium 4, Flexstation) assay in human GPR120 stable HEK293 cell line coexpressing Gqi5. The class given is cell-based. The conditions noted are these: for % Activity at 5 μM: 5 μM compound compared to the maximal activity of GW9508 at 6.7 μM (100%); for EC50: human GPR120 stably expressing cells, 8 concentrations 0.00001 to 20 μM. How it is done:
Human GPR120 stable cell line was purchased from Multispan Inc (26219 Eden Landing Road, Hayward, Calif. 94545). This GPR120 cell line was generated in HEK293 cells coexpressing Gqi5. In this cell line, the Flag epitope tag (DYKDDDDK) was fused to the amino terminus of human GPR120 protein.
The concentration of intracellular Ca^2+ was measured as described below. Human GPR120 cells were plated in 96 well plates (Poly-D-Lysine coated black/clear Plate, Greiner Bio-One) at 70,000 cells per well and cultured overnight in conditions of 37° C. and 5% CO2. A Ca^2+ assay dye stock solution was prepared by adding 10 mL of assay buffer (HBSS/20 mM HEPES, pH 7.4) to FLIPR Calcium 4 Assay Bulk Kit (Molecular Devices). The 10 mL of Ca^2+ assay dye solution was prepared by further diluting 0.5 mL of Ca^2+ assay dye stock solution with 10 mL of assay buffer. The medium of the cells was removed and immediately 100 μl of the Ca^2+ assay dye solution was dispensed into each well followed by incubation at 37° C. and 5% CO2 for 50 minutes to incorporate the Ca^2+ dye into the cells. The cell plate was then placed in the Flexstation (Molecular Devices) for 20 minutes at 37° C. Compounds were dissolved in 100% DMSO and diluted to desired concentrations with assay buffer and placed in Flexstation simultaneously with the cell plate for 20 minute incubation at 37° C. prior to reading. Fluorescence intensity was measured immediately following compound addition (25 μl/well) on the Flexstation at an excitation wavelength of 485 nm and an emission wavelength of 525 with 515 nm auto cutoff. The resulting increase in fluorescence intensities corresponds to increases in intracellular Ca^2+ levels.
Compounds were dissolved in 100% DMSO to a concentration of 20 mM to provide stock solutions. To determine activity against human GPR120, compounds were added with human GPR120 stably expressing cells (described above), at 8 desired concentrations ranging from 0.00001 to 20 μM, in 96 well plates and fluorescence intensities were measured for 90 seconds with 2-second intervals. An EC50 value (concentration of the GPR120 agonist where 50% of the agonist's maximal activity is observed) was calculated using the changes (Max-Min) of fluorescent intensity.
To determine percent activity for a tested compound, the fluorescence intensity value obtained at a particular concentration were compared to the maximal fluorescence intensity value obtained for reference compound GW9508 (4-[[(3-phenoxyphenyl)methyl]amino]benzene propanoic acid; British Journal of Pharmacology 2006 148, 619-628) that acts as a full agonist of the GPR120 receptor. The maximal activity of GW9508 is designated as 100% activity. Typically, the GW9508 activity reached a maximum at a concentration of approximately 6.7 μM. Activities of compounds that were tested according to this method are shown in Table 1 below and are expressed as % activity at 5 μM compound compared to the maximal activity of GW9508 at 6.7 μM.

Where [1] appears, read: read-out: EC50 between >1 μM and ≦10 μM.

Regarding `O=C(O)CCc1cc(F)c(OCc2snnc2-c2ccc(Cl)cc2)c(F)c1` [Example 62, 3-(4-((4-(4-chlorophenyl)-1,2,3-thiadiazol-5-yl)methoxy)-3,5-difluorophenyl)propanoic acid], the “% Activity at 5 μM” value is listed as 88%. Where the note is “read-out: EC50 ≦ 1 μM”, the EC50 was not above 1 µM.

With `O=C(O)C1CC1c1cc(F)c(OCc2snnc2-c2ccccc2)c(F)c1` (centres unmarked) [Example 63, 2-(3,5-difluoro-4-((4-phenyl-1,2,3-thiadiazol-5-yl)methoxy)phenyl)cyclopropane carboxylic acid], the “% Activity at 5 μM” value is 76%. Where the note is “read-out: EC50 ≦ 1 μM”, the EC50 was not above 1 µM.

For `Cc1cc(COc2c(F)cc(C3CC3C(=O)O)cc2F)n(-c2ccccc2)n1` (centres unmarked) [Example 64, 2-(3,5-difluoro-4-((3-methyl-1-phenyl-1H-pyrazol-5-yl)methoxy)phenyl)cyclopropane carboxylic acid], the “% Activity at 5 μM” value is recorded as 71%. Moreover, the EC50 (read-out: EC50 ≦ 1 μM) is not above 1 µM.

In the case of `O=C(O)CCc1cc(F)c(OCc2cc(C(F)(F)F)nn2-c2ccccc2)c(F)c1` [Example 65, 3-(3,5-difluoro-4-((1-phenyl-3-(trifluoromethyl)-1H-pyrazol-5-yl)methoxy)phenyl)propanoic acid], the “% Activity at 5 μM” value worked out at 86%. In addition, the EC50 (read-out: EC50 ≦ 1 μM) was not above 1 µM.

Take `C[C@@H](Oc1cc(F)c(OCc2snnc2-c2ccc(Cl)cc2)c(F)c1)C(=O)O` [Example 66, (R)-2-(4-((4-(4-chlorophenyl)-1,2,3-thiadiazol-5-yl)methoxy)-3,5-difluorophenoxy)propanoic acid]: the “% Activity at 5 μM” value stood at 15%. Also, the EC50 (read-out: EC50 > 10 μM) was more than 10 µM.

Take `O=C(O)CCC(=O)c1ccc(OCc2snnc2-c2ccc(Cl)cc2)cc1` [Example 67, 4-(4-((4-(4-chlorophenyl)-1,2,3-thiadiazol-5-yl)methoxy)phenyl)-4-oxobutanoic acid]: the “% Activity at 5 μM” value turned out to be 59%. The EC50 under setting [1] was in the range of 1 to 10 µM.

Regarding `CO/N=C(/CCC(=O)O)c1ccc(OCc2snnc2-c2ccc(Cl)cc2)cc1` [Example 68, (Z)-4-(4-((4-(4-chlorophenyl)-1,2,3-thiadiazol-5-yl)methoxy)phenyl)-4-(methoxyimino)butanoic acid], the “% Activity at 5 μM” value is listed as 54%. Moreover, the EC50 under setting [1] was in the range of 1 to 10 µM.

Regarding `C/C(=C\C(=O)O)Cc1ccc(OCc2snnc2-c2ccc(Cl)cc2)cc1` [Example 69, (E)-4-(4-((4-(4-chlorophenyl)-1,2,3-thiadiazol-5-yl)methoxy)phenyl)-3-methylbut-2-enoic acid], the “% Activity at 5 μM” value was 87%. For the same compound, the EC50 under setting [1] lay within 1 to 10 µM.

`C/C(=C\C(=O)O)CCc1ccc(OCc2snnc2-c2ccc(Cl)cc2)cc1` [Example 70, (E)-5-(4-((4-(4-chlorophenyl)-1,2,3-thiadiazol-5-yl)methoxy)phenyl)-3-methylpent-2-enoic acid]: the “% Activity at 5 μM” value was 62%. Besides, the EC50 under setting [1] lay in the range of 1 to 10 µM.

With `Cc1cc(COc2ccc(CCC(C)CC(=O)O)cc2)n(-c2ccc(Cl)cc2)n1` (centres unmarked) [Example 71, 5-(4-((1-(4-chlorophenyl)-3-methyl-1H-pyrazol-5-yl)methoxy)phenyl)-3-methyl pentanoic acid], the “% Activity at 5 μM” value was determined as 100%. For the same compound, the EC50 (read-out: EC50 ≦ 1 μM) is not above 1 µM.

On to `Cc1cc(COc2ccc(CC(C)CC(=O)O)cc2)n(-c2ccc(Cl)cc2)n1` (centres unmarked) [Example 72, 4-(4-((1-(4-chlorophenyl)-3-methyl-1H-pyrazol-5-yl)methoxy)phenyl)-3-methylbutanoic acid], for which the “% Activity at 5 μM” value worked out at 100%. Moreover, the EC50 (read-out: EC50 ≦ 1 μM) is not above 1 µM.

Take `O=C(O)CCc1cc(F)c(OCc2snnc2-c2ccc(F)c(F)c2)c(F)c1` [Example 73, 3-(4-((4-(3,4-difluorophenyl)-1,2,3-thiadiazol-5-yl)methoxy)-3,5-difluorophenyl)propanoic acid]: the “% Activity at 5 μM” value is on record as 72%. The EC50 (read-out: EC50 ≦ 1 μM) was not above 1 µM.

Consider `Cc1cc(COc2c(F)cc(CC(C)C(=O)O)cc2F)n(-c2ccc(C(C)C)cc2)n1` (centres unmarked) [Example 76, 3-(3,5-difluoro-4-((1-(4-isopropylphenyl)-3-methyl-1H-pyrazol-5-yl)methoxy)phenyl)-2-methylpropanoic acid], for which the “% Activity at 5 μM” value came out at 85%. Also, the EC50 (read-out: EC50 ≦ 1 μM) was not above 1 µM.

Turning to `Cc1cc(COc2c(F)cc(CC(C)C(=O)O)cc2F)n(-c2ccc(C(F)(F)F)cc2)n1` (centres unmarked) [Example 77, 3-(3,5-difluoro-4-((3-methyl-1-(4-(trifluoromethyl)phenyl)-1H-pyrazol-5-yl)methoxy)phenyl)-2-methylpropanoic acid], the “% Activity at 5 μM” value is reported as 95%. The EC50 (read-out: EC50 ≦ 1 μM) is not above 1 µM.

With `Cc1cc(COc2ccc(CC(C)C(=O)O)cc2C(F)(F)F)n(-c2ccc(Cl)cc2)n1` (centres unmarked) [Example 78, 3-(4-((1-(4-chlorophenyl)-3-methyl-1H-pyrazol-5-yl)methoxy)-3-(trifluoromethyl)phenyl)-2-methylpropanoic acid], the “% Activity at 5 μM” value is listed as 92%. Moreover, the EC50 (read-out: EC50 ≦ 1 μM) is not above 1 µM.

On to `Cc1cc(COc2c(F)cc(CC(C)C(=O)O)cc2F)n(-c2ccc(C(N)=O)cc2)n1` (centres unmarked) [Example 79, 3-(4-((1-(4-carbamoylphenyl)-3-methyl-1H-pyrazol-5-yl)methoxy)-3,5-difluorophenyl)-2-methylpropanoic acid], for which the “% Activity at 5 μM” value came to 9%. Besides, where the note is “read-out: EC50 > 10 μM”, the EC50 was more than 10 µM.

For `Cc1cc(COc2c(F)cc(CC(C)C(=O)O)cc2F)n(-c2ccc(C#N)cc2)n1` (centres unmarked) [Example 80, 3-(4-((1-(4-cyanophenyl)-3-methyl-1H-pyrazol-5-yl)methoxy)-3,5-difluorophenyl)-2-methylpropanoic acid], the “% Activity at 5 μM” value was determined as 92%. The EC50 (read-out: EC50 ≦ 1 μM) was not above 1 µM.

As to `Cc1cc(COc2c(F)cc(CC(C)C(=O)O)cc2F)n(-c2ccc3c(c2)CCC3)n1` (centres unmarked) [Example 81, 3-(4-((1-(2,3-dihydro-1H-inden-5-yl)-3-methyl-1H-pyrazol-5-yl)methoxy)-3,5-difluorophenyl)-2-methylpropanoic acid], the “% Activity at 5 μM” value is 106%. Further, the EC50 (read-out: EC50 ≦ 1 μM) was not above 1 µM.

For `CCCCc1ccc(-n2nc(C)cc2COc2c(F)cc(CC(C)C(=O)O)cc2F)cc1` (centres unmarked) [Example 82, 3-(4-((1-(4-butylphenyl)-3-methyl-1H-pyrazol-5-yl)methoxy)-3,5-difluorophenyl)-2-methylpropanoic acid], the “% Activity at 5 μM” value is recorded as 68%. Besides, the EC50 (read-out: EC50 ≦ 1 μM) was not above 1 µM.

For `CCc1ccc(-n2nc(C)cc2COc2c(F)cc(CC(C)C(=O)O)cc2F)cc1` (centres unmarked) [Example 83, 3-(4-((1-(4-ethylphenyl)-3-methyl-1H-pyrazol-5-yl)methoxy)-3,5-difluorophenyl)-2-methylpropanoic acid], the “% Activity at 5 μM” value came out at 88%. In addition, where the note is “read-out: EC50 ≦ 1 μM”, the EC50 was not above 1 µM.

For `Cc1ccc(-n2nc(C)cc2COc2c(F)cc(CC(C)C(=O)O)cc2F)cc1` (centres unmarked) [Example 84, 3-(3,5-difluoro-4-((3-methyl-1-p-tolyl-1H-pyrazol-5-yl)methoxy)phenyl)-2-methylpropanoic acid], the “% Activity at 5 μM” value turned out to be 106%. Besides, under “read-out: EC50 ≦ 1 μM”, the EC50 is not above 1 µM.

Take `Cc1cc(COc2c(F)cc(CC(C)C(=O)O)cc2F)n(-c2cccc(C(C)C)c2)n1` (centres unmarked) [Example 85, 3-(3,5-difluoro-4-((1-(3-isopropylphenyl)-3-methyl-1H-pyrazol-5-yl)methoxy)phenyl)-2-methylpropanoic acid]: the “% Activity at 5 μM” value is given as 95%. In addition, the EC50 (read-out: EC50 ≦ 1 μM) was not above 1 µM.

In general, EC50 refers to the concentration giving half of the maximal effect.
